{
  "source": "paper PMC10223884",
  "about": "“Oligosaccharide Ligands of Galectin-4 and Its Subunits: Multivalency Scores Highly” (Molecules, 2023)",
  "key": {"Gal-4C": {"target": "Gal-4C", "set-up": "method as in PMID 26828567, PMID 26077389", "conditions": "fluorescence anisotropy, read-out: binding constant; cited from earlier work"}, "Gal-4CL": {"target": "T1, Gal-4CL (Homo sapiens, UniProt P56470)", "T1 construct": "designated as Gal-4NL (aa 1-160), and Gal-4CL (aa 169-323), respectively; made in house; host or cells: E. coli Rosetta (DE3) pLysS", "T1 sequence (P56470 169-323)": "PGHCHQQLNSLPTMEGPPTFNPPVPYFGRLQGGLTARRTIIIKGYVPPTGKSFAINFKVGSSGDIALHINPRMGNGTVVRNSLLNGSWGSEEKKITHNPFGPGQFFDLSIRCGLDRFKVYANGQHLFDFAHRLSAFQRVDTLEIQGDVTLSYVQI", "assay": "competitive ELISA, inhibition of binding of Gal-4CL subunit to immobilized ASF", "protocol": "(§1) To design the ELISA method, we first examined the direct binding of the whole Gal-4, Gal-4NL, and Gal-4-CL to standard glycoprotein asialofetuin (ASF, MW 48.4 kDa), which carries up to nine LacNAc epitopes. The ASF was immobilized by hydrophobic interaction in microtiter-plate wells, and the binding of increasing concentrations of Gal-4 proteins was quantified by colorimetric immunodetection using horseradish peroxidase conjugated to an anti-His-tag antibody. The apparent dissociation constants (KD) were calculated from the non-linear regression of the binding curves (Figure 3). […] While for the Gal-4 ELISA measurement we used the concentration of Gal-4 of 2.5 μM, for both subunits, it was 25 μM. […] The Gal-4 proteins were incubated with increasing concentrations of the respective inhibitors, and the concentration-dependent inhibition of the binding to the immobilized ASF was quantified using spectrophotometric colorimetric immunodetection (HRP-conjugated anti-His-tag antibody). The respective half-maximal inhibition constants (IC50) were calculated from the non-linear regression of the sigmoidal curves (Figure 3), and they are shown in Table 2 and Table 3.\n(§2) Each incubation step was followed by washing the wells with 3 × 250 µL phosphate-buffered saline (PBS) containing 0.05% Tween® 20. In total, 0.1 µM ASF in PBS (50 µL/well) was coated onto microtiter plates (Nunc Immuno Sorb, ThermoFisher Scientific, Waltham, MA, USA) overnight. After blocking the wells with 2 mg/mL bovine serum albumin (BSA) in PBS buffer (250 µL/well, 1 h), serial dilutions of the inhibitors in PBS buffer containing 2 mM EDTA (EPBS) were incubated with Gal-4 (2.5 µM final dimer concentration) or its subunits, Gal-4CL and Gal-4NL (25 µM final monomer concentration) for 2 h (50 µL/well). The residual bound galectin was labeled with an anti-His-antibody conjugated with horseradish peroxidase (HRP) (Santa Cruz Biotechnology, Heidelberg, Germany; 1:999 dilution in PBS). The colorimetric reaction with TMB One substrate solution (Kem-En-Tec, Taastrup, Denmark; 50 µL/well) was stopped with 3 M hydrochloric acid (HCl) (50 µL/well) and quantified spectrophotometrically at 450 nm (Sunrise; Tecan Group Ltd., Männedorf, Switzerland). The values of half-maximal inhibitory concentrations (IC50) were calculated by non-linear regression (dose–response inhibition-variable slope) of sigmoidal curves from a minimum of three independent experiments using GraphPad Prism 8.4.3 (GraphPad Software, San Diego, CA, USA)."}, "Gal-4": {"target": "T2, Gal-4 (Homo sapiens, UniProt P56470)", "T2 construct": "made in house; host or cells: Escherichia coli Rosetta (DE3) pLysS", "T2 sequence (P56470 1-323)": "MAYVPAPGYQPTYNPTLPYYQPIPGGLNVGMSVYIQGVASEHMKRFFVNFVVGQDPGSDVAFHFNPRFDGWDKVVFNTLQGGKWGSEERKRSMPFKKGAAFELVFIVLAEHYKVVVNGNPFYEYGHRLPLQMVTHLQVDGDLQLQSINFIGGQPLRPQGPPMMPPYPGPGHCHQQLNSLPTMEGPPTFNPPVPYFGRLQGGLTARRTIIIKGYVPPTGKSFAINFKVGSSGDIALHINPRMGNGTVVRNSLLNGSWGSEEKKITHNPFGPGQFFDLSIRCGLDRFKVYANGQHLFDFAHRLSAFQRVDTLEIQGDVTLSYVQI", "assay": "competitive ELISA, inhibition of binding of whole Gal-4 to immobilized ASF", "protocol": "as §1, §2"}, "Gal-4NL [1]": {"target": "T3, Gal-4NL (Homo sapiens, UniProt P56470)", "T3 construct": "designated as Gal-4NL (aa 1-160), and Gal-4CL (aa 169-323), respectively; made in house; host or cells: E. coli Rosetta (DE3) pLysS", "T3 sequence (P56470 1-160)": "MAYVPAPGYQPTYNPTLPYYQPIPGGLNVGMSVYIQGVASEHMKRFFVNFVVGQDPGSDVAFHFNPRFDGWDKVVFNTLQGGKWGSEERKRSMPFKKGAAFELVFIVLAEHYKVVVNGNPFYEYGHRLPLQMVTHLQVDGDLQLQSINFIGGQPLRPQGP", "assay": "competitive ELISA, inhibition of binding of Gal-4NL subunit to immobilized ASF", "protocol": "as §1, §2"}, "Gal-4N": {"target": "Gal-4N", "set-up": "method as in PMID 26828567, PMID 26077389", "conditions": "fluorescence anisotropy, read-out: binding constant; cited from earlier work"}, "Gal-4NL [2]": {"target": "Gal-4NL", "set-up": "method as in PMID 33968903", "conditions": "ITC; cited from earlier work"}},
  "data": [
    {"smiles": "CC(=O)N[C@H]1[C@@H](O[C@H]2[C@@H](O)[C@@H](CO)O[C@@H](O[C@H]3[C@H](O)[C@@H](O)C(O)O[C@@H]3CO)[C@@H]2O[C@@H]2O[C@@H](C)[C@@H](O)[C@@H](O)[C@@H]2O)O[C@H](CO)[C@H](O)[C@@H]1O", "note": "(stereo partly shown) [blood-group antigen A (5), blood-group antigen A type 6]", "values": [
      {"measurement": "Kd", "setting": "Gal-4C", "value": 75, "unit": "µM"},
      {"measurement": "rp Gal-4CL, relative potency (IC50 (lactose)/IC50 (ligand))", "setting": "Gal-4CL; Gal-4CL", "value": 320},
      {"measurement": "IC50", "setting": "Gal-4CL; competitive ELISA, Gal-4CL 25 µM, immobilized ASF", "value": "27 ± 5", "unit": "µM"},
      {"measurement": "IC50", "setting": "Gal-4; competitive ELISA, Gal-4 2.5 µM, immobilized ASF", "value": "50 ± 20", "unit": "µM"},
      {"measurement": "rp, relative potency (IC50 (lactose)/IC50 (ligand))", "setting": "Gal-4; whole Gal-4", "value": 48},
      {"measurement": "rp Gal-4NL, relative potency (IC50 (lactose)/IC50 (ligand))", "setting": "Gal-4NL [1]; Gal-4NL", "value": 130},
      {"measurement": "fold stronger inhibitor of Gal-4NL than blood-group antigen B", "setting": "Gal-4NL [1]; Gal-4NL, ELISA", "value": 12, "unit": "fold"},
      {"measurement": "IC50", "setting": "Gal-4NL [1]; competitive ELISA, Gal-4NL 25 µM, immobilized ASF", "value": "22 ± 1", "unit": "µM"},
      {"measurement": "Kd", "setting": "Gal-4N", "value": 164, "unit": "µM"},
      {"measurement": "Kd", "setting": "Gal-4NL [2]", "value": 86, "unit": "µM"}
    ]}
  ]
}
